# Laboratory results published in patent US20050148495A1, “Methods and materials including for treating acne” (priority 2003, published 2005).
# Where two headings read alike, the source gives them in different places. Non-standard residues stand in square brackets, D forms with d. Residues, ends and D or L forms follow the SMILES beside them. d1Nal = N[C@H](Cc1cccc2ccccc12)C(=O)O
# Columns and labels:
# S. aureus = assay: Comparison of XMP.629 with standard topical agents (MIC90/MBC); assay type: cell-based, Staphylococcus aureus
# Procedure: Control tubes containing only water or formulation buffer were prepared for each isolate. Initial growth controls were determined by removing 10 μL from the water control tube and diluting it by 100 fold. From this dilution, 10 μL was used for inoculation and for spreading over the surface onto Laked Blood Agar (LBA) (Anaerobe Systems, Morgan Hill, Calif.) plates. The tubes and plates were incubated in an anaerobic atmosphere at 37° C. for 48 h. […] MBC50 and 90 values represent where 50 and 90%, respectively, of the tested strain's MBC values are equal to or less than the indicated concentration.
# P. avidum = assay type: cell-based, Propionibacterium avidum
# Procedure: This example addresses studies relating to the antimicrobial activities of XMP.629. An in vitro assessment of antibiotic activity in XMP.629 and various known antibiotics against a representative panel of bacterial strains associated with acne was conducted. A broth dilution methodology was employed using guidelines established by National Committee for Clinical Laboratory Standards (NCCLS) for anaerobic organisms to establish an antibacterial profile for XMP.629. Assays to determine the minimal bactericidal concentrations (MBC) and minimal inhibitory concentration (MIC) were conducted for XMP.629 and other known antibiotics. Furthermore, test to determine post antibiotic effect (PAE) of XMP.629 were done.
# Inoculum from a representative panel of bacterial strains associated with acne, such as P. acnes, P. avidum, P. granulosum, and Staphylococcus epidermis was prepared by suspending approximately 5-10 isolated bacterial colonies in pre-reduced MicroScan® Inoculum Water (Dade Behring, Deerfield, Ill.), and growing the bacterial suspension to log phase (approximately 48 hrs). An inoculum of between 1-5×10^6/mL was achieved by adding 100 μL of the suspension to 25 mL Brain Heart Infusion Broth (BHI) (Anaerobe Systems, Morgan Hill, Calif.).
# A stock solution of XMP.629 dissolved in water at a concentration of 4.0 mg/mL was prepared. Dilute solutions of XMP.629 at concentrations ranging from about 1.25 to about 160 μg/mL were made in either water or formulation buffer (130 mM sodium chloride, 0.2% P103 (poloxamer 333), and 0.10% EDTA, pH 7.3). Aqueous stock solutions of clindamycin and erythromycin were prepared in water.
# Each tube, containing a final volume of 1 mL, was mixed by vortexing. Control tubes containing only water or formulation buffer were prepared for each isolate. Initial growth controls were determined by removing 10 μL from the water control tube and diluting it by 100 fold. From this dilution, 10 μL was used for inoculation and for spreading over the surface onto Laked Blood Agar (LBA) (Anaerobe Systems, Morgan Hill, Calif.) plates. The tubes and plates were incubated in an anaerobic atmosphere at 37° C. for 48 h. After incubation, the tubes were mixed and 10 μL samples were removed from each tube for additional plating. These plates were then further incubated in an anaerobic atmosphere at 37° C. for 48-72 h and the resulting colonies were counted. After adjusting for the dilution factor, the lowest concentration of drug or combination of drugs reducing the inoculum by ≧99.9% was considered to be the minimum bactericidal concentration (MBC). MBC50 and 90 values represent where 50 and 90%, respectively, of the tested strain's MBC values are equal to or less than the indicated concentration. The lowest concentration of antibiotic(s) that inhibited visible growth in the culture tubes was considered to be the minimal inhibitory concentration (MIC).
# For comparison, additional Propionibacterium strains, were tested.
# [1] = tested on: intact and abraded skin of New Zealand White rabbits; assay: Rabbit primary skin irritation test (Draize); assay type: in vivo; settings: 4 hour exposure
# Procedure: XMP.629 was evaluated for any potential dermal irritant effects in the rabbit primary skin irritation test for this dermal irritation study, XMP.629 was tested on intact and abraded skin in three New Zealand White rabbits. All animals received 0.5 mL of XMP.629 on each intact and abraded dorsal skin application site. This was accomplished by placing a gauze patch directly on the skin of each application site and saturating the patch with 0.5 mL of the XMP.629 solution. The application sites were then wrapped with gauze bandaging and non-irritating semi-occlusive tape. Elizabethan collars were then applied for the 4 hour exposure period. At the end of the 4 hour exposure period, the collars and wrappings were removed and any residual XMP.629 removed. The test sites were evaluated using the standard Draize scoring system (Draize et al., 1944, J. Pharmacol, Exp. Ther. 82: 377-390) for erythema and edema within 30 to 60 minutes and 24, 48, and 72 hours following patch removal.
# [2] = RMA 8375, Formulation Buffer Solvent, Study 1
# [3] = RMA 8375, Formulation Buffer Solvent, Study 2
# [4] = RMA 8375, Water Solvent, Study 1
# [5] = RMA 8375, Water Solvent, Study 2
# [6] = RMA 8376, Formulation Buffer Solvent, Study 1
# [7] = RMA 8376, Formulation Buffer Solvent, Study 2
# [8] = RMA 8376, Water Solvent, Study 1
# [9] = RMA 8376, Water Solvent, Study 2
# [10] = RMA 9497, Formulation Buffer Solvent, Study 1
# [11] = RMA 9497, Formulation Buffer Solvent, Study 2
# [12] = RMA 9497, Water Solvent, Study 1
# [13] = RMA 9497, Water Solvent, Study 2
# [14] = RMA 13009, Formulation Buffer Solvent, Study 1
# [15] = RMA 13009, Formulation Buffer Solvent, Study 2
# [16] = RMA 13009, Water Solvent, Study 1
# [17] = RMA 13009, Water Solvent, Study 2
smiles,measurement,setting,value
"CC(C)C[C@@H](NC(=O)[C@H](N)CCCCN)C(=O)N[C@H](Cc1ccccc1)C(=O)N[C@H](CCCNC(=N)N)C(=O)N[C@H](Cc1cccc2ccccc12)C(=O)N[C@H](CCC(N)=O)C(=O)N[C@H](C)C(=O)N[C@H](CCCCN)C(=O)N[C@H](Cc1cccc2ccccc12)C(N)=O [XMP.629, NH2-lys-leu-phe-arg-(3-(1-naphthyl)-ala)-gln-ala-lys-(3-(1-naphthyl)-ala)-CONH2] (H-[dK][dL][dF][dR][d1Nal][dQ][dA][dK][d1Nal]-NH2)",Minimum Inhibitory Concentrations,Staphylococcus aureus; Staphylococcus aureus 6258,2.00 µg/mL
same,Minimum Inhibitory Concentrations,Staphylococcus aureus; Staphylococcus aureus 11371,2.00 µg/mL
same,Minimum Inhibitory Concentrations,Staphylococcus aureus; Staphylococcus aureus 12598,2.00 µg/mL
same,Minimum Inhibitory Concentrations,Staphylococcus aureus; Staphylococcus aureus 19636,2.00 µg/mL
same,Minimum Inhibitory Concentrations,Staphylococcus aureus; Staphylococcus aureus BAA-38 (MRSA),2.00 µg/mL
same,volume of the central compartment,0.05 mg/kg dose,203.2 mL/kg
same,decrease of plasma concentrations within 4 hours of dosing,intravenous,approximately 100 fold
same,"MIC90, XMP.629 data reported as MBC values",S. aureus,8 µg/mL
same,"MIC90, XMP.629 data reported as MBC values",S. aureus; in FB (formulation buffer),0.06 µg/mL
same,MBC50,"P. avidum; P. avidum, 4 strains",1 µg/mL
same,MBC90,"P. avidum; P. avidum, 4 strains",2 µg/mL
same,MBC Range,"P. avidum; P. avidum, 4 strains, in µg/mL",1-2
same,MBC,P. avidum; [2],0.50 µg/mL
same,MIC,P. avidum; [2],0.25 µg/mL
same,MBC,P. avidum; [3],1 µg/mL
same,MIC,P. avidum; [3],0.25 µg/mL
same,MBC,P. avidum; [4],1 µg/mL
same,MIC,P. avidum; [4],0.5 µg/mL
same,MBC,P. avidum; [5],2 µg/mL
same,MIC,P. avidum; [5],1 µg/mL
same,MBC,P. avidum; [6],0.50 µg/mL
same,MIC,P. avidum; [6],0.5 µg/mL
same,MBC,P. avidum; [7],2 µg/mL
same,MIC,P. avidum; [7],0.25 µg/mL
same,MBC,P. avidum; [8],2 µg/mL
same,MIC,P. avidum; [8],1 µg/mL
same,MBC,P. avidum; [9],2 µg/mL
same,MIC,P. avidum; [9],1 µg/mL
same,MBC,P. avidum; [10],1 µg/mL
same,MIC,P. avidum; [10],0.25 µg/mL
same,MBC,P. avidum; [11],2 µg/mL
same,MIC,P. avidum; [11],0.25 µg/mL
same,MBC,P. avidum; [12],2 µg/mL
same,MIC,P. avidum; [12],2 µg/mL
same,MBC,P. avidum; [13],4 µg/mL
same,MIC,P. avidum; [13],1 µg/mL
same,MBC,P. avidum; [14],0.50 µg/mL
same,MIC,P. avidum; [14],0.25 µg/mL
same,MBC,P. avidum; [15],1 µg/mL
same,MIC,P. avidum; [15],0.25 µg/mL
same,MBC,P. avidum; [16],1 µg/mL
same,MIC,P. avidum; [16],1 µg/mL
same,MBC,P. avidum; [17],1 µg/mL
same,MIC,P. avidum; [17],1 µg/mL
same,dermal irritation,[1]; abraded skin,only mildly irritating
same,dermal irritation,[1]; intact skin,not irritating
same,Minimum Inhibitory Concentrations,Pseudomonas aeruginosa; Pseudomonas aeruginosa 9027,8.00 µg/mL
same,Minimum Inhibitory Concentrations,Pseudomonas aeruginosa; Pseudomonas aeruginosa 19660,8.00 µg/mL
same,Minimum Inhibitory Concentrations,Pseudomonas aeruginosa; Pseudomonas aeruginosa 27853,4.00 µg/mL
same,Minimum Inhibitory Concentrations,Pseudomonas aeruginosa; Pseudomonas aeruginosa XS-65 (MDR),8.00 µg/mL
